According to patent US8962664B2, “Selective glycosidase inhibitors and uses thereof” (Simon Fraser University, priority 2006, dated 2015):

Tests used:
O-GlcNAcase = O-GlcNAcase (Homo sapiens (Human), UniProt O60502); assay: Assay for determination of KI values for inhibition of O-GlcNAcase activity; format: biochemical; details: pNP-GlcNAc 0.5 mM, PBS buffer pH 7.4, 37° C., Dixon plots
Protocol: Experimental Procedure for Kinetic Analyses: Enzymatic reactions were carried out in PBS buffer (pH 7.4) using pNP-GlcNAc as a substrate (0.5 mM) and monitored continuously at 37° C. at 400 nm using a Cary 3E UV-VIS spectrophotometer equipped with a Peltier temperature controller. Reactions were pre-heated in a 500 μL quartz cuvette for approximately 5 minutes followed by addition of 10 μL enzyme via syringe (final enzyme concentration 0.002 mg/mL). Reaction velocities were determined by linear regression of the linear region of the reaction progress curve between the first and third minutes. An inhibitor concentration range of ⅕ to 5 times K1 was used in each case.
For example, the K1 values for inhibition of O-GlcNAcase shown in Table 4 were obtained for compounds 2, 4, and 6. All K1 values were determined using linear regression of a Dixon plots.

[1] = Stability on storage neat; format: physicochemical; details: stored neat at 0° C. (7 d)
Protocol: The azide obtained as described above (200 mg, 0.81 mmol) was dissolved in 3:1 THF:H2O (5 mL) and triphenylphosphine (310 mg, 1.2 mmol) was added. The solution was then stirred overnight at room temperature. Concentration of the mixture followed by flash chromatography of the resultant residue on silica gel (MeOH:EtOAc 2:3) gave 130 mg (75% yield) of (3aR,5R,6S,7R,7aR)-5-(aminomethyl)-2-propyl-5,6,7,7a-tetrahydro-3aH-pyrano[3,2-d]thiazole-6,7-diol (51) as a colourless oil. […] (7 d). ^1H NMR (500 MHz, methanol-d4): δ 0.97 (t, 3H, J=7.4 Hz), 1.63-1.67 (m, 2H), 2.43-2.49 (m, 2H), 3.39 (ddd, 1H, J=2.5, 4.1, 9.0 Hz), 3.51 (dd, 1H, J=4.1, 9.5 Hz), 3.64 (dd, 1H, J=2.5, 12.5 Hz), 3.75 (dd, 1H, J=6.1, 12.5 Hz), 4.04 (dd, 1H, J=4.4, 4.5 Hz), 4.28 (m, 1H), 6.35 (d, 1H, J=7.0 Hz).

Chain of O-GlcNAcase (O60502 whole entry): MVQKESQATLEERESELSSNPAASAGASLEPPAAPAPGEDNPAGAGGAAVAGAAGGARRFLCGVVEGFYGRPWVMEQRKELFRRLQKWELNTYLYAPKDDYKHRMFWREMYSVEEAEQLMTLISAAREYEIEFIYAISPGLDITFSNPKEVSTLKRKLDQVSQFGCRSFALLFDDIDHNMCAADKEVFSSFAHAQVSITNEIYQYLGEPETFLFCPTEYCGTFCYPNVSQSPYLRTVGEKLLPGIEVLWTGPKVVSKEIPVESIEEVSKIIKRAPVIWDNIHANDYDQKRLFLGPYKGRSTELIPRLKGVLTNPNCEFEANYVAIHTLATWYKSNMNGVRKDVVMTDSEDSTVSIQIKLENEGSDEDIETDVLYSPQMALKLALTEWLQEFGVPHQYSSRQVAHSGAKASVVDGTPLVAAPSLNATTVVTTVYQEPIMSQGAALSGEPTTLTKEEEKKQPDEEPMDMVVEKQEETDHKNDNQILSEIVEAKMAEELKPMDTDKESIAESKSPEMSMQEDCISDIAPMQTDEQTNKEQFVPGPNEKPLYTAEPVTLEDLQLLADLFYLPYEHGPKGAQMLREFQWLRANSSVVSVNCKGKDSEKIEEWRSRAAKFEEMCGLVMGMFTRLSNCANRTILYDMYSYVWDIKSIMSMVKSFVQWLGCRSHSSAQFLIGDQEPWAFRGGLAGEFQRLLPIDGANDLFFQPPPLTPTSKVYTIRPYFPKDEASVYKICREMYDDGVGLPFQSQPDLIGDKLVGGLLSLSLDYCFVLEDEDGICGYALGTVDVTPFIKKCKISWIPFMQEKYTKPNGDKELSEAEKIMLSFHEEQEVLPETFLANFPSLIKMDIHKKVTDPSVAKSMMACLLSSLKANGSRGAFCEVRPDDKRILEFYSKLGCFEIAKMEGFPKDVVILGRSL

Ki (O-GlcNAcase) [µM] | stability on storage [1] | Compound
10 | – | OC[C@H]1O[C@@H]2SC(CF)=N[C@@H]2[C@@H](O)[C@@H]1O [Compound 2, (3aR,5R,6S,7R,7aR)-2-(fluoromethyl)-5-(hydroxymethyl)-5,6,7,7a-tetrahydro-3aH-pyrano[3,2-d]thiazole-6,7-diol]
7.7 | – | OC[C@H]1O[C@@H]2SC(C(F)F)=N[C@@H]2[C@@H](O)[C@@H]1O [Compound 4, (3aR,5R,6S,7R,7aR)-2-(difluoromethyl)-5-(hydroxymethyl)-5,6,7,7a-tetrahydro-3aH-pyrano[3,2-d]thiazole-6,7-diol]
5.6 | – | OC[C@H]1O[C@@H]2SC(C(F)(F)F)=N[C@@H]2[C@@H](O)[C@@H]1O [Compound 6, (3aR,5R,6S,7R,7aR)-5-(hydroxymethyl)-2-(trifluoromethyl)-5,6,7,7a-tetrahydro-3aH-pyrano[3,2-d]thiazole-6,7-diol]
– | decompose slowly with time | CCCC1=N[C@@H]2[C@@H](O)[C@H](O)[C@@H](CN)O[C@@H]2S1 [Compound 51, (3aR,5R,6S,7R,7aR)-5-(aminomethyl)-2-propyl-5,6,7,7a-tetrahydro-3aH-pyrano[3,2-d]thiazole-6,7-diol]
